One series relates to human thrombocytes. Nature of the series: Inhibition of the collagen-induced aggregation of human thrombocytes in vitro. In kind it is cell-based. To be noted: for EC50: 10 min, read-out: Inhibition of thrombocyte aggregation EC 50%; for Inhibition of thrombocyte aggregation R.E. (relative effectiveness): acetylsalicylic acid = 1.00. Here is the method: 1. Inhibition of the collagen-induced aggregation of human thrombocytes in vitro.
Thrombocyte-rich plasma is obtained by centrifuging venous citrate blood (300 g, 10 minutes duration at 4° C.). The photometric measurement of the thrombocyte aggregation is carried out with addition of MgCl2 (final concentration 10 millimoles/l) and of collagen Stago (final concentration 0.02 mg/ml) in a Born Mk 3 aggregometer. The maximum extinction change/sec is used as a measure of the aggregation.
The aggregation-inhibiting activity of the substances is tested after an incubation time of 10 minutes.
(§1) The effective doses or effective concentrations were calculated from the linear relationships between the logarithm of the dose or concentration and the logarithm of the effect, by means of regression analysis.
(§2) Acetylsalicyclic acid was used as the reference substance for the inhibition of thrombocyte aggregation and dihydralazine was used as the reference substance for the anti-hypertensive effect.

Another series concerns rat thrombocytes. Nature of the series: Inhibition of the collagen-induced aggregation of rat thrombocytes ex vivo. In kind it is in vivo, male Sprague-Dawley rats. As to conditions: for ED33: Rattus norvegicus, read-out: Inhibition of thrombocyte aggregation ED 33%; for Inhibition of thrombocyte aggregation R.E. (relative effectiveness): acetylsalicylic acid 1.0. Here is the method: 2. Inhibition of the collagen-induced aggregation of rat thrombocytes ex vivo.
The substances are administered orally to groups of 10-15 male Sprague-Dawley rats weighing 200-250 g. 2-4 hours after administration, blood is taken under ether narcosis and thrombocyte-rich plasma is obtained by centrifuging. The aggregation after addition of collagen is measured as indicated above.
as §1, §2

A short description of series [1]: Toxicity (LD 50), mice, intraperitoneal administration. In kind it is in vivo. As to conditions: mouse, in vivo, ip; mice, intraperitoneal administration. The text has this:
(§3) ^(3) Mice. Intraperitoneal administration.

For another series, the system named is narcotized rats. Nature of the series: Anti-hypertensive effect on narcotized rats. In kind it is in vivo, male Sprague-Dawley rats. As to conditions: for ED20: Rattus norvegicus, ip, dose at which the blood pressure falls by 20%, read-out: Lowering of blood pressure ED 20%; for ED20 / Lowering of blood pressure R.E. (relative effectiveness): rats, urethane narcosis, intraperitoneal; for Lowering of blood pressure R.E. (relative effectiveness): dihydralazine = 1.00; for anti-hypertensive effect (in words): Table 1; for anti-hypertensive power relative to dihydralazine: times more powerful than dihydralazine. Here is the method:
3. Anti-hypertensive effect on narcotized rats.
To test the anti-hypertensive effect, the substances are administered intraperitoneally to groups of 3-5 male Sprague-Dawley rats weighing 240-280 g, under urethane narcosis ([…] given intraperitoneally). The measurement of the blood pressure in the carotid artery is carried out by means of Statham transducers. The ED 20% is determined as the dose which lowers the mean carotid blood pressure by 20%.
as §1, §2

Series [2] has as its system spontaneously hypertonic rats. Nature of the series: Anti-hypertensive effect on spontaneously hypertonic rats. In kind it is in vivo, male spontaneously hypertonic Okamoto rats. To be noted: for ED20: Rattus norvegicus, 2 hours, dose which lowers the blood pressure by 20% compared to the control group, read-out: Anti-hypertensive effect ED 20%; for ED20 / Anti-hypertensive effect R.E. (relative effectiveness): spontaneously hypertonic rats, oral; for Anti-hypertensive effect R.E. (relative effectiveness): dihydralazine 1.0. Here is the method:
4. Anti-hypertensive effect on spontaneously hypertonic rats.
The substances are administered orally to groups of 4-8 male spontaneously hypertonic Okamoto rats weighing 270-340 g.
Before, and 2 hours after, the administration, the systolic blood pressure is measured non-surgically by means of piezo-electric crystal sensors.
The ED 20% is determined as the dose which lowers the systolic pressure by 20%, taking into account the values found with untreated control animals.
as §1, §2

For a further series, the system named is Mice. Nature of the series: Toxicity (LD 50), mice, intraperitoneal administration. In kind it is in vivo. As to conditions: compared with acetylsalicylic acid and dihydralazine; Table 2.
Source text: as §3

Setting [3] is: human thrombocytes, in vitro, collagen 0.02 mg/ml, 10 minutes incubation, concentration which inhibits collagen-induced aggregation by 50%.

Usually LD50 stands for the dose expected to kill half of the subjects tested. Low values mean a more toxic substance, high ones a less toxic substance.

≈ marks a conversion by molar mass, not a printed value. Like-named read-outs stand apart in the source and are kept apart here.

With `CC(=O)Oc1ccccc1C(=O)O` [Acetylsalicylic acid, acetylsalicylic acid, reference compound], the EC50 in the series with human thrombocytes (Homo sapiens) is 494 µg/mL (≈ 2740 µM). In the series on rat thrombocytes (po), the ED33 stood at 134 mg/kg. The “Inhibition of thrombocyte aggregation R.E. (relative effectiveness)” value (“Inhibition … (relative effectiveness)” below) with rat thrombocytes (rats, oral, ex vivo) is recorded as 1.0. The same compound had an LD50 in series [1] of 167 mg/kg.
As to `NNc1nnc(NN)c2ccccc12` [Dihydralazine, dihydralazine, reference compound], in the series with human thrombocytes (setting [3]), the EC50 is 149 µg/mL (≈ 783 µM). In addition, in the series with human thrombocytes (human thrombocytes, in vitro), the “Inhibition … (relative effectiveness)” value turned out to be 3.32. Further, in the series with narcotized rats, the ED20 came out at 0.34 mg/kg and the “Lowering of blood pressure R.E. (relative effectiveness)” value (“Lowering … (relative effectiveness)” below) is recorded as 1.00. In series [2], the ED20 turned out to be 6.85 mg/kg and the “Anti-hypertensive effect R.E. (relative effectiveness)” value turned out to be 1.0. The 50% lethal dose (LD50) in series [1] is 106 mg/kg.
Turning to `O=C1CCC(c2ccc(NC(=O)CCl)cc2)=NN1` [Example 1, 6-(p-chloroacetylaminophenyl)-4,5-dihydropyridaz-3-one], the EC50 in the series with human thrombocytes (setting [3]) stood at 0.25 µg/mL (≈ 0.941 µM). Moreover, the “Inhibition … (relative effectiveness)” value in the series with human thrombocytes (human thrombocytes, in vitro) is reported as 1,980. Further, in the series with narcotized rats, the ED20 was 0.37 mg/kg, the “anti-hypertensive effect (in words)” value was “about as active as dihydralazine” and the “Lowering … (relative effectiveness)” value is 0.92.
The like results for `CC1CC(=O)NN=C1c1ccc(NC(=O)CCl)cc1` (stereo not shown) [Example 3, 6-(p-chloroacetylaminophenyl)-5-methyl-4,-dihydropyridaz-3-one] were, in that order, 0.11 µg/mL (≈ 0.393 µM), 4,490, 0.15 mg/kg, “about as active as dihydralazine” and 2.27.
The like results for `CC(Cl)C(=O)Nc1ccc(C2=NNC(=O)CC2)cc1` (stereo not shown) [Example 4, 6-[p-(2-chloropropionylamino)-phenyl]-4,5-dihydropyridaz-3-one] were, in that order, 0.27 µg/mL (≈ 0.965 µM), 1,830, 0.53 mg/kg, “about as active as dihydralazine” and 0.64.
Turning to `CC(Cl)C(=O)Nc1ccc(C2=NNC(=O)CC2C)cc1` (stereo not shown) [Example 5, 6-[p-(2-chloropropionylamino)-phenyl]-5-methyl-4,5-dihydropyridaz-3-one], the EC50 in the series with human thrombocytes (setting [3]) came to 0.031 µg/mL (≈ 0.106 µM). Moreover, the “Inhibition … (relative effectiveness)” value with human thrombocytes (human thrombocytes, in vitro) is listed as 15,900. Further, the ED33 with rat thrombocytes (rats, oral, ex vivo, Example 5 given 2 hours, acetylsalicylic acid 4 hours before measuring, dose which inhibits collagen-induced aggregation by 33%) was 0.82 mg/kg. In the series on rat thrombocytes (oral, Table 2), the “inhibition of thrombocyte aggregation after oral administration (in words)” value is recorded as “very strong inhibition of thrombocyte aggregation”. Further, the “Inhibition … (relative effectiveness)” value in the series on rat thrombocytes (rats, oral, ex vivo) is reported as 163. For the same compound, in the series on narcotized rats, the ED20 worked out at 0.0079 mg/kg, the “Lowering … (relative effectiveness)” value was determined as 43.04 and the “anti-hypertensive power relative to dihydralazine” value is 43 times. Moreover, in series [2], the ED20 was 1.16 mg/kg and the “Anti-hypertensive effect R.E. (relative effectiveness)” value was found to be 5.9. Besides, the “lowering of blood pressure” value in series [2] (spontaneously hypertensive rats, oral dose of 1.2 mg/kg) is on record as “about 20%”. The compound also yielded a 50% lethal dose (LD50) in series [1] of 231 mg/kg. Further, in the series on Mice, the “acute toxicity (in words)” value was “somewhat less than that of acetylsalicyclic acid and dihydralazine”.
Take `O=C1CCC(c2ccc(NC(=O)CCCl)cc2)=NN1` [Example 6, 6-[p-(3-chloropropionylamino)-phenyl]-4,5-dihydropyridaz-3-one]: the EC50 with human thrombocytes (setting [3]) stood at 0.35 µg/mL (≈ 1.25 µM). The “inhibition of thrombocyte aggregation (in words)” value in the series on human thrombocytes (human thrombocytes, collagen-induced, Table 1) is reported as “highly specific thrombocyte aggregation-inhibiting effect”. For the same compound, in the series on human thrombocytes (human thrombocytes, in vitro), the “Inhibition … (relative effectiveness)” value is given as 1,410. Moreover, in the series on narcotized rats, the ED20 was found to be 10 mg/kg, the “anti-hypertensive effect (in words)” value was “slight” and the “Lowering … (relative effectiveness)” value is 0.03.
As for `CC1CC(=O)NN=C1c1ccc(NC(=O)CCCl)cc1` (stereo not shown) [Example 7, 6-[p-(3-chloropropionylamino)-phenyl]-5-methyl-4,5-dihydropyridaz-3-one], the EC50 in the series with human thrombocytes (setting [3]) is 0.3 µg/mL (≈ 1.02 µM). Moreover, the “Inhibition … (relative effectiveness)” value in the series with human thrombocytes (human thrombocytes, in vitro) is on record as 1,650. In the series on narcotized rats, the ED20 worked out at 0.045 mg/kg, the “Lowering … (relative effectiveness)” value worked out at 7.56 and the “anti-hypertensive power relative to dihydralazine” value amounted to 7.6 times.
Regarding `CC1CC(=O)NN=C1c1ccc(NC(=O)CCCCl)cc1` (stereo not shown) [Example 8, 6-[p-(4-chlorobutyrylamino)-phenyl]-5-methyl-4,5-dihydropyridaz-3-one], the EC50 in the series with human thrombocytes (setting [3]) amounted to 1.7 µg/mL (≈ 5.52 µM). In addition, the “Inhibition … (relative effectiveness)” value with human thrombocytes (human thrombocytes, in vitro) was 291. In the series with narcotized rats, the ED20 worked out at 0.32 mg/kg, the “anti-hypertensive effect (in words)” value was “about as active as dihydralazine” and the “Lowering … (relative effectiveness)” value is 1.06.
For `CCC(Br)C(=O)Nc1ccc(C2=NNC(=O)CC2C)cc1` (stereo not shown) [Example 9] the same measures were 0.27 µg/mL (≈ 0.767 µM), 1,830, 1.49 mg/kg, “slight” and 0.23.
Take `CC1CC(=O)NN=C1c1ccc(NC(=O)C(C)(C)CCl)cc1` (stereo not shown) [Example 11]: the EC50 with human thrombocytes (setting [3]) was 0.47 µg/mL (≈ 1.46 µM). Moreover, in the series with human thrombocytes (human thrombocytes, in vitro), the “Inhibition … (relative effectiveness)” value is listed as 1,050. In the series on narcotized rats, the ED20 stood at 0.61 mg/kg and the “Lowering … (relative effectiveness)” value was 0.56.
For the compound `CC1CC(=O)NN=C1c1ccc(NC(=O)C(C)(C)CBr)cc1` (stereo not shown) [Example 12], the EC50 with human thrombocytes (setting [3]) came out at 0.44 µg/mL (≈ 1.2 µM). Moreover, the “Inhibition … (relative effectiveness)” value in the series with human thrombocytes (human thrombocytes, in vitro) is recorded as 1,120. For the same compound, in the series on narcotized rats, the ED20 turned out to be 0.34 mg/kg, the “anti-hypertensive effect (in words)” value is “about as active as dihydralazine” and the “Lowering … (relative effectiveness)” value was 1.00.
For `CC(Br)C(=O)Nc1ccc(C2=NNC(=O)CC2C)cc1` (stereo not shown) [Example 16] the same measures were 0.58 µg/mL (≈ 1.71 µM), 852, 0.4 mg/kg, “about as active as dihydralazine” and 0.85.
The like results for `CC1CC(=O)NN=C1c1ccc(NC(=O)C(C)(C)Br)cc1` (stereo not shown) [Example 17] were, in that order, 0.89 µg/mL (≈ 2.53 µM), 555, 2.93 mg/kg, “slight” and 0.12.

For the origin of these results see patent US4376771A, “6-(p-Acylaminophenyl)-4,5-dihydropyridaz-3-ones and therapeutic agents containing said compounds” (BASF Aktiengesellschaft, priority 1977, dated 1983).
